Measured values reported in US6486097B2, “Herbicidal fatty acid and maleic hydrazide salt compositions” (W. Neudorff GmbH KG, priority 2000, dated 2002).

How the values were obtained:
dandelions [1] = experiment: Field dandelion test with added alcohol and gum (Example 6); assay type: in vivo; details: 0.2 L/m^2, re-sprayed after 14 days, 10 days after second spray
Method: This test compared the herbicidal activity of NH4C9, NH4MH and (NH4C9+NH4MH) with added alcohol and gums on dandelion mortality. The gum Kelzan S (Merck & Co., Inc.) at 0.08% was used as a thickener.
This test also investigated the effect of adding NH4MH to emulsified C9 acid. The emulsified C9 acid solution was made by adding 3.5 g of C9 acid with 1.0 g of Tween 80 and 95.5 g water (no ammonium hydroxide was added). For the C9 acid+NH4MH solution, 13 g of water was replaced by 13 g of the 6.9% NH4MH stock solution.
Every solution was sprayed onto 16 field-grown, medium-sized dandelions. All of the dandelions had leaves longer than 10 cm. The dandelions were sprayed at a rate of 0.2 L/m^2. All plants were re-sprayed 14 days after the first spray. The number of dead plants was assessed 10 days after the second spray.

[2] = same number of moles of NH4MH and MH
Method: The compositions of the solutions are listed below. Note that slightly more NH4MH was added than MH acid, as NH4MH has a higher molecular weight. The same number of moles of NH4MH and MH were used.
Viscosity is measured in centipoise (milli pascal seconds). Water has a viscosity of 1.0.

dandelions [3] = experiment: Greenhouse dandelion test of TopGun with and without MH (Example 5); assay type: in vivo; details: NH4MH 1.15%; sprayed to run-off; 15 days after spraying
Method: TopGun is a proprietary emulsified formulation containing 18% C9 (nonanoic) acid present as free acid. TopGun was diluted to 1.8% C9 acid. Each solution was sprayed to run-off onto ten 20 cm diameter dandelions grown in the greenhouse. The number of dead plants was assessed 15 days after spraying.

dandelions [4] = experiment: Dandelion test of NH4C9 with a range of NH4MH concentrations (Example 3); assay type: in vivo; details: sprayed to wetness, 36 days after spraying
Method: This test examined NH4C9 combined with a range of NH4MH concentrations. All of the NH4C9 treatments contained 3.9% NH4C9. All of the solutions were sprayed to wetness onto 10 dandelions. The number of dead plants was assessed 36 days after spraying.

[5] = Viscosity of test solutions (Example 4); assay type: physicochemical; details: pH 7.38
Text: (§1) This test studied the effect of thickening NH4C9+NH4MH solutions on plant mortality. The solutions were thickened by adding 0.5 g of the xanthan gum Rhodopol 23 suspended in 3.0 g propylene glycol to 96.5 g solution. The pH values of the test solutions were adjusted to 7.38.

dandelions [6] = experiment: Greenhouse dandelion test with a gum (Example 4), mortality; assay type: in vivo; details: pH 7.38
Text: as §1

dandelions [7] = experiment: Field dandelion test (Example 2); assay type: in vivo; details: 0.2 L/m^2, re-sprayed after 7 days, 38 days after first spray
Method: This test compared the herbicidal activity of NH4C9, NH4MH, and NH4C9+NH4MH on dandelion mortality. This test also investigated the effect of adding isopropyl alcohol (IPA) to NH4C9+NH4MH. Nine dandelions were grown in 0.5 m^2 areas of soil in the field. At the time of spraying the dandelions were very large, with leaves longer than 25 cm. Every treatment was sprayed onto 4 areas of soil. Every 0.5 m^2 plot received 100 ml of solution (0.2 L/m^2). All of the areas were re-sprayed 7 days after the first spray. The number of dead plants was assessed 38 days after the first spray.
Round Up (35.6% glyphosate N-(phosphonomethyl) glycine) produced by Monsanto, Killex (9.5% 2,4-D (2,4-dichlorophenoxy) acetic acid, Mecoprop (5% 2-(4-chloro-2-methylphenoxy)) propanoic acid and 0.9% Dicamba (3,6-dichloro-o-anisic acid) by Green Cross were diluted as per label instructions and included as standards.

dandelions [8] = experiment: Potted dandelion test of NH4C9 and NH4C11:1 with and without MH (Example 7); assay type: in vivo; details: for Number of Dead Plants of 15 Total: 0.5 L/m^2, sprayed twice 8 days apart, 8 days after second spray; for Contact herbicidal activity (in words): without NH4MH, treated plants were able to re-grow
Text: Five-month-old potted dandelions were sprayed with solutions of ammonium fatty acid soaps in combination with NH4MH. The solutions contained 3.9% ammonium fatty acid soaps and 1.15% NH4MH. The plants were sprayed at a rate of 0.5 L/m^2. The plants were sprayed twice, with 8 days between sprays. Final observations were taken 8 days after the second spray. Fifteen plants were used per treatment.

[9] = C9 acid 3.5% emulsified with Tween 80

For `N.O=c1ccc(O)n[nH]1` [NH4MH, ammonium salt of maleic hydrazide], the “Dead Plants (#/16)” value (dandelions [1]; NH4MH 0.9% only) was 0 #/16, the “Dead Plants (%)” value (dandelions [1]; NH4MH 0.9% only) was 0% and the “Solubility in NH4C9 concentrate compared with MH” value [2] was “superior solubility”. For the same molecule, the “Number of Dead Plants (#/10 Plants)” value (dandelions [3]) was 0 #/10 Plants, the “Mortality (#/10 plants)” value (dandelions [4]; NH4MH 1.15%) was 0 #/10 plants and the “Viscosity (Cps)” value ([5]; NH4MH 1.15%) was 1 Cps. The “Mortality (#/10)” value (dandelions [6]; NH4MH 1.15%) was 0 #/10, the “Dead Plants (#/36)” value (dandelions [7]; NH4MH 1.15%) was 1 #/36 and the “Dead Plants (%)” value (dandelions [7]; NH4MH 1.15%) was 3%.

With `CCCCCCCCC(=O)O` [C9 acid, Nonanoic acid] the “Dead Plants (#/16)” value (dandelions [1]; [9]) was 3 #/16 and the “Dead Plants (%)” value (dandelions [1]; [9]) was 19%.

With `O=c1ccc(=O)[nH][nH]1` [MH, 1,2-dihydro-3,6-pyridazine-dione] the “Number of Dead Plants of 15 Total” value (dandelions [8]; MH only 1%) was 0.

For `C=CCCCCCCCCC(=O)O.N` [NH4C11:1], the “Number of Dead Plants of 15 Total” value (dandelions [8]; NH4C11:1 3.9%) was 2 and the “Contact herbicidal activity (in words)” value (dandelions [8]) was “good contact herbicides”.

In the case of `CCCCCCCCC(=O)O.N` [NH4C9, ammonium salt of nonanoic acid], the “Dead Plants (#/16)” value (dandelions [1]; NH4C9 3.9%) is reported as 2 #/16, the “Dead Plants (%)” value (dandelions [1]; NH4C9 3.9%) is reported as 13% and the “Number of Dead Plants of 15 Total” value (dandelions [8]; NH4C9 3.9%) is reported as 1. For the same molecule, the “Contact herbicidal activity (in words)” value (dandelions [8]) was “good contact herbicides”, the “Mortality (#/10 plants)” value (dandelions [4]; NH4C9 3.9%) was 0 #/10 plants and the “Viscosity (Cps)” value ([5]; NH4C9 2.2%) was 1 Cps. For the same molecule, the “Mortality (#/10)” value (dandelions [6]; NH4C9 2.2%) was 1 #/10, the “Dead Plants (#/36)” value (dandelions [7]; NH4C9 3.9%) was 0 #/36 and the “Dead Plants (%)” value (dandelions [7]; NH4C9 3.9%) was 0%.
